≈ marks a conversion by molar mass, not a printed value. Entries after “also recorded” stand apart in the source; their conditions may differ. Where two headings read alike, the source gives them in different places. Marks after values point to notes of the source that are not given here.
Assays:
[1] = system: tryptophan transport system of Mtb H37Rv strain; settings: tryptophan transport system of Mtb H37Rv strain ref 27; read-out: Michaelis–Menten constant (KM); cited from earlier work
[2] = system: Mycobacterium tuberculosis H37Rv Strain; assay: MIC by resazurin reduction microplate assay (REMA), H37Rv; format: cell-based; settings: Mtb H37Rv, REMA
Mtb H37Rv strain = assay: In vivo model of TB infection in mice; settings: for lungs mean log10 CFU/mL ± SD / spleen weight mean g ± SD: gavage, single daily dose, 15 administrations; for toxicity in mice (in words): infected mice, up to 21 days
[3] = Aqueous solubility at different pHs; format: physicochemical; settings: thermodynamic from solid, 25 °C for 4 h
Protocol: The compound was weighed (1 mg) and solubilized in phosphate-buffered saline (PBS, pH 7.4), HCl 0.1 M (pH 1.2), and NH4HCO3 0.1 M (pH 9.2) to a final concentration of 1 mg/mL. The solutions were kept under stirring (250 rpm) for 4h at 37 °C. The solutions were filtered ([…] PDVA filter) and analyzed by HPLC. DMSO solution 1 mg/mL was used as the control for 100% soluble.

[4] = Chemical stability in H2O at 37 °C, open and closed system (volatility assay)
[5] = Chemical stability at pH 1.2, 7.4 and 9.1; format: physicochemical; settings: 37 °C for 24 h; for chemical stability pH 1.2: 0.1 M HCl; for chemical stability pH 9.1: 0.1 M NH4HCO3; for chemical stability pH 7.4: PBS
Protocol: The compounds to be tested were prepared in a 100 μM solution and incubated at 37 °C for 24 h in three solutions representing the physiologically relevant pHs to drug administration: pH 1.2 (stomach), pH 7.4 (plasma), and pH 9.2 (intestinal tissue). The compounds were quantified by HPLC-MS/MS. The chemical stability experiments were carried out in triplicates to ensure reproducibility. The results were presented as percentage, comparing the signal at time zero of the assay, considering this measure 100%, with measurements after the incubation time. Alprenolol was used as the analytical control (data not shown). The results were presented as the percentage, comparing the signal at time zero of the assay (100%) with the signal produced by concentrations after the incubation period.

[6] = Metabolic stability in rat liver microsomes; format: in vitro ADME; settings: for CLint scaled: pH 7.4, read-out: metabolic stability Clint (intrinsic clearance); for half-life: pH 7.4, read-out: metabolic stability t1/2 (half-life)
Protocol: The compound was incubated at 37 °C in the concentration of 20 μM with rat liver microsomal fractions in PBS solution at pH 7.4 solution. As previously described,[31] rat liver microsomal fractions were seeded by centrifugation at 9.000 × g. To the supernatant containing the postmithocondrial with cytosolic and membrane-bound enzymes, 4 μM 5-FI was added and incubated at 37 °C. The interaction between the compound in the incubation mixture and the enzyme containing NADPH at 1 mg/mL concentration was measured by HPLC-MS/MS technique to determine the in vitro compound consumption by the microsomal fractions at 0, 5, 15, and 30 min reaction (incubation) time. The intrinsic compound clearance was taken as the half-life, and the disappearance was compared with the positive control, verapamil(2 μM).

[7] = In vivo absorption assay: plasma concentration after gavage; settings: mice; for plasma concentrations (range): 15 and 30 min
[8] = Parallel artificial membrane permeability assay (PAMPA); format: in vitro ADME; settings: pH 7.4, 5 h
Protocol: 5-FI was quantified by HPLC-MS after a period of incubation and separated into two fractions by a permeable lipidic membrane. The result is expressed in velocity units of permeation (cm/s). The lipidic membrane is previously prepared with specific activation solutions that create a hydrophobic surface, simulating the intestinal epithelial tissue. To the donor aqueous phase (pH 7.4), 100 μM compound is added. To the previously prepared membrane is added the receptor aqueous phase (pH 7.4), and the mixture is incubated for 5h at room temperature with both receptor and donor aqueous phases in contact, separated just by the membrane. The compound transported by passive diffusion is measured by taking an aliquot of receptor solution and analyzing it by HPLC-MS/MS.

[9] = Cellular viability (MTT and neutral red uptake), Vero; format: cell-based; settings: African green monkey, Vero cells; 72 h of exposure; MTT and neutral red assays
Protocol: (§1) To assess the selectivity and potential toxicity of 5-FI, the effects on the viability of both HepG2 and Vero mammalian cell lines were evaluated. Cell viability was measured after 72 h of incubation with concentrations of 2, 5, and 20 μM of the compound. […] Two methods were used to assess the cell integrity: the MTT assay, which evaluates mitochondrial viability, and the neutral red assay, which assesses lysosomal functionality.
(§2) To determine the cellular viability, the cells were incubated with the 5-fluoro-1H-indole compound with 3-(4,5-dimethylthiazol-2-yl)-2,5-diphenyl-2H-tetrazolium bromide (MTT)[29] and neutral red uptake (NRU)[30] methods. […] The formed formazan crystals were dissolved with 100 μL of DMSO, and the absorbance of this solution was measured at 595 nm using an EZ Read 400 microplate reader (Biochrom, Holliston, MA, USA). The absorbance of the formazan crystals, diluted with DMSO, was directly proportional to the number of live cells with active mitochondria, corresponding to their viability. The mean value of absorbance of control wells was taken as 100% viability, and the values of treated cells were calculated as the percentage of vehicle control containing 0.5% DMSO. […]

Vero cells = assay: as above; format: cell-based; settings: 2, 5 and 20 μM, 72 h; MTT and neutral red; listed as 5-FI
Protocol: as §1, §2

[10] = SOS Chromotest ref 25; cited from earlier work
HepG2 cells = assay: Cellular viability (MTT and neutral red uptake), HepG2; format: cell-based; settings: 2, 5 and 20 μM, 72 h; MTT and neutral red; listed as 5-FI
Protocol: as §1, §2

[11] = as above; format: cell-based; settings: human, HepG2 cells; 72 h of exposure; MTT and neutral red assays
Protocol: as §1, §2

[12] = most frequent value of three independent assays
[13] = pH 1.2, simulated gastric fluid, 0.1 M HCl, read-out: aqueous solubility pH 1.2
[14] = pH 9.1, aqueous buffer, 0.1 M NH4HCO3, read-out: aqueous solubility pH 9.1
[15] = phosphate-buffered saline, pH 7.4, aqueous buffer, PBS, read-out: aqueous solubility pH 7.4

## N[C@@H](Cc1c[nH]c2ccccc12)C(=O)O [tryptophan, L-tryptophan]
[1]
  Km: 1250 µM

## Cl.Fc1ccc2[nH]ccc2c1 [Compound 11, 5-fluoroindole hydrochloride]
[2]; [12]
  MIC: 29.1 µM
Mtb H37Rv strain; 10 μmol/kg
  lungs mean log10 CFU/mL ± SD: 5.80 ± 0.20 log10 CFU/mL
  spleen weight mean g ± SD: 0.58 ± 0.19 g
Mtb H37Rv strain; 30 μmol/kg
  lungs mean log10 CFU/mL ± SD: 6.21 ± 0.32 log10 CFU/mL
  spleen weight mean g ± SD: 0.55 ± 0.23 g
Mtb H37Rv strain; 100 μmol/kg
  lungs mean log10 CFU/mL ± SD: 5.86 ± 0.67 log10 CFU/mL
  spleen weight mean g ± SD: 0.62 ± 0.35 g
Mtb H37Rv strain; 200 μmol/kg
  number of CFUs in the lungs compared to the EC (early control) group (in words): significantly reduced
  reduction of mycobacterial load in the lungs compared to vehicle group (in words): significantly reduce
  lungs mean log10 CFU/mL ± SD: 3.68 ± 0.45***^, ### log10 CFU/mL
  spleen weight mean g ± SD: 0.28 ± 0.06 g
Mtb H37Rv strain; 10, 30 and 100 μmol/kg
  reduction of CFUs in the lungs compared to vehicle group (in words): not able to reduce
Mtb H37Rv strain; 200 μmol/kg, listed as 5-FI.HCL
  toxicity in mice (in words): no evidence of a toxic effect
Mtb H37Rv strain; 200 μmol/kg, listed as 5-FI.HCl
  toxicity in mice (in words): no toxicity
[3]; [13]
  solubility at 4 h: 2.3 µM
[3]; [14]
  solubility at 4 h: 1110 µM
[3]; [15]
  solubility at 4 h: 600 µM
[4]; 0 h
  chemical stability, closed system: 100 ± 0.0%
  chemical stability, open system: 100 ± 0.0%
[4]; 1 h
  chemical stability, closed system: 95.3 ± 0.1%
  chemical stability, open system: 97.6 ± 0.0%
[4]; 2 h
  chemical stability, closed system: 95.0 ± 0.2%
  chemical stability, open system: 98.0 ± 0.1%
[4]; 4 h
  chemical stability, closed system: 104.6 ± 0.2%
  chemical stability, open system: 100.3 ± 0.5%
[4]; 6 h
  chemical stability, closed system: 97.9 ± 0.1%
  chemical stability, open system: 103.9 ± 0.1%
[4]; 24 h
  chemical stability, closed system: 110.8 ± 0.2%
  chemical stability, open system: 113.5 ± 0.1%
[4]; 48 h
  chemical stability, closed system: 124.1 ± 0.1%
  chemical stability, open system: 114.3 ± 0.0%
[5]
  chemical stability pH 1.2: 100%
  chemical stability pH 9.1: 90.5%
  chemical stability pH 7.4: 80.3%
[5]; pH 1.2, 7.4, 9.1
  chemical stability at all pH values tested: > 80%
[6]; rat
  CLint scaled: 48 mL/min/kg
  half-life: 0.2 h
[7]; gavage 400 mg/kg, 15 min
  plasma concentration, mean ± SD: 32.6 ± 14.7 µM
[7]; gavage 400 mg/kg, 30 min
  plasma concentration, mean ± SD: 82.3 ± 35.05 µM
[7]; gavage 400 mg/kg, joint range over 5-FI and 5-FI.HCl, 400 mg/kg
  plasma concentrations (range): 32.6 to 82.3 µM

## Fc1ccc2[nH]ccc2c1 [Compound 1, 5-Fluoroindole]
[2]; [12]
  MIC: 4.7 µM
[2]; Mycobacterium tuberculosis, H37RV
  MIC: 0.63 µg/mL
[8]
  Papp at 5 h, 100 μM: 2.4 ×10⁻⁶ cm/s
[9]
  CC50 at 72 h: > 20 µM
Vero cells
  cell viability / cytotoxicity in Vero (in words): not altered; also recorded: no cytotoxicity; also recorded: low cytotoxicity
[10]
  genotoxicity: does not exhibit genotoxicity
[3]; [13]
  solubility at 4 h: > 550 µM
[3]; [14]
  solubility at 4 h: 2.2 µM (≈ 0.297 µg/mL)
[3]; [15]
  solubility at 4 h: 3.5 µM (≈ 0.473 µg/mL)
[4]; 0 h
  chemical stability, closed system: 100 ± 0.0%
  chemical stability, open system: 100 ± 0.0%
[4]; 1 h
  chemical stability, closed system: 97.5 ± 0.1%
  chemical stability, open system: 97.5 ± 0.2%
[4]; 2 h
  chemical stability, closed system: 95.2 ± 0.0%
  chemical stability, open system: 95.4 ± 0.2%
[4]; 4 h
  chemical stability, closed system: 93.3 ± 0.1%
[4]; 6 h
  chemical stability, closed system: 87.8 ± 0.0%
  chemical stability, open system: 88.9 ± 0.2%
[4]; 24 h
  chemical stability, closed system: 86.1 ± 0.0%
  chemical stability, open system: 89.1 ± 0.2%
[4]; 48 h
  chemical stability, closed system: 80.3 ± 0.1%
  chemical stability, open system: 85.5 ± 0.1%
[5]
  chemical stability pH 1.2: 37.2%
[5]; listed as 5-FI
  chemical stability pH 9.1: 99.2%
  chemical stability pH 7.4: 58.5%
[6]
  CLint scaled: 9 mL/min/kg
  half-life: 2.4 h
HepG2 cells
  cell viability / cytotoxicity in HepG2 (in words): not altered; also recorded: no cytotoxicity; also recorded: low cytotoxicity
[11]
  CC50 at 72 h: > 20 µM
[7]; female, CF-1, mouse, in vivo, 400 mg/kg, plasma concentration, mean ± SD, gavage 400 mg/kg, 15 min
  concentration at 15 min: 45.2 ± 14.8 µM
[7]; female, CF-1, mouse, in vivo, 400 mg/kg, plasma concentration, mean ± SD, gavage 400 mg/kg, 30 min
  concentration at 30 min: 79.4 ± 19.4 µM
[7]; female, CF-1, mouse, in vivo, po, 400 mg/kg, plasma concentrations (range), oral 400 mg/kg, 30 min, joint range over 5-FI and 5-FI.HCl
  concentration at 30 min: 79 to 82 µM
[7]; gavage 400 mg/kg, joint range over 5-FI and 5-FI.HCl, listed as 5-FI, 400 mg/kg
  plasma concentrations (range): 32.6 to 82.3 µM

Reference: PMC11292626, “5-Fluoroindole Reduces the Bacterial Burden in a Murine Model of Mycobacterium tuberculosis Infection” (ACS Omega, 2024)
